Laboratory results reported in publication PMC7155171, “Probing the Open Global Health Chemical Diversity Library for Multistage-Active Starting Points for Next-Generation Antimalarials” (ACS Infectious Diseases, 2020).
Like-named read-outs stand apart in the source and are kept apart here.

Experiments:
Assay type in all cases: cell-based, Plasmodium falciparum
[1] = tested on: P. falciparum (NF54) stage V gametocytes; experiment: Stage V gametocyte viability assay (MitoTracker Red CMXRos high content imaging); conditions: Plasmodium falciparum, NF54, 72 h; for inhibition at 2 µM: read-out: Stg V Gam primary screen: Inhibition % (2uM) (n=2)
[2] = tested on: P. falciparum Dd2 (PfLuc) line expressing firefly luciferase, asexual blood stage; experiment: microbe, parasite or virus in culture; conditions: Plasmodium falciparum
P. falciparum Dd2 = experiment: SYBR green I asexual blood stage proliferation assay (96 h); conditions: Plasmodium falciparum, DD2, Sybr Green I, 11-pt dose response, 96hr; for IC50: read-out: CDD P. falciparum Sybr Green I ABS 11-pt Reconfirmation Dose Response (96hr): IC50; for Emax: read-out: CDD P. falciparum Sybr Green I ABS 11-pt Reconfirmation Dose Response (96hr): Maximum inhibition (%)
[3] = read-out: Stg V Gam dose response IC50 (µM) (n=3), 10-point dose response, n=3, 72 h
[4] = DD2, read-out: CDD P. falciparum Luciferase ABS 11-pt Reconfirmation Dose Response (48hr): IC50 (μM), 11-pt dose response, 48hr
[5] = DD2, 8-pt dose response, 96hr, read-out: CDD P. falciparum Luciferase ABS 8-pt Reconfirmation Dose Response (96hr): IC50
[6] = DD2, 8-pt dose response, 96hr, read-out: CDD P. falciparum Luciferase ABS 8-pt Reconfirmation Dose Response (96hr): Maximum inhibition (%)
[7] = DD2, 11-pt dose response, 96hr, read-out: CDD P. falciparum Luciferase ABS 11-pt Reconfirmation Dose Response (96hr): IC50
[8] = DD2, 11-pt dose response, 96hr, read-out: CDD P. falciparum Luciferase ABS 11-pt Reconfirmation Dose Response (96hr): Maximum inhibition (%)
[9] = DD2, 11-pt dose response, 48hr, read-out: CDD P. falciparum Luciferase ABS 11-pt Reconfirmation Dose Response (48hr): Maximum inhibition (%)
[10] = DD2, 8-pt dose response, 96hr, read-out: P. falciparum Luciferase ABS 8-pt Reconfirmation Dose Response (96hr): IC50
[11] = DD2, 8-pt dose response, 96hr, read-out: P. falciparum Luciferase ABS 8-pt Reconfirmation Dose Response (96hr): Maximum inhibition (%)
[12] = read-out: GAM V IC50, stage V gametocytes, 72 h

NC(=O)c1cccc2nc([C@H]3CCN(Cc4ccccn4)C3)[nH]c12 [DDD01025389, NC(=O)C1=C2NC(=NC2=CC=C1)[C@H]1CCN(CC2=CC=CC=N2)C1]
IC50 [1, 3]: 0.125 µM | IC50 [2, 4]: 0.058 µM | IC50 [2, 5]: 0.0339 µM | Emax [2, 6]: 98.4% | IC50 [2, 7]: 0.0101 µM | Emax [2, 8]: 101% | IC50 (P. falciparum Dd2): 80.7 nM | Emax (P. falciparum Dd2): 86.6%

COc1ccc(NC(=O)Cn2nc(C)c(C(C)=O)c2C)cc1 [DDD01027600, COC1=CC=C(NC(=O)CN2N=C(C)C(C(C)=O)=C2C)C=C1]
IC50 [1, 3]: 3.74 µM | inhibition at 2 µM [1]: 53.5% | IC50 [2, 4]: 1.9 µM | IC50 [2, 5]: 0.49 µM | Emax [2, 6]: 92.8% | Emax [2, 9]: 87% | IC50 [2, 7]: 1.45 µM | Emax [2, 8]: 92.8% | IC50 (P. falciparum Dd2): 4580 nM

CN(Cc1ccco1)C[C@H]1OC[C@@H]2CCN(Cc3ccccn3)C[C@@H]21 [DDD01033585, CN(C[C@H]1OC[C@@H]2CCN(CC3=CC=CC=N3)C[C@H]12)CC1=CC=CO1]
IC50 [1, 3]: 3.17 µM | inhibition at 2 µM [1]: 76% | IC50 [2, 10]: 1.65 µM | Emax [2, 11]: 91.7%

COc1ccc(-c2c(C)nn3c(=N)c(C#N)n[nH]c23)cc1OC [DDD01035187, COC1=CC=C(C=C1OC)C1=C2N=NC(C#N)=C(N)N2N=C1C]
IC50 [1, 3]: 8.2 µM | inhibition at 2 µM [1]: 61.6% | IC50 [2, 4]: 1.18 µM | IC50 [2, 5]: 0.57 µM | Emax [2, 6]: 93% | Emax [2, 9]: 95.8% | IC50 [2, 7]: 0.841 µM | Emax [2, 8]: 98.5% | IC50 (P. falciparum Dd2): 5980 nM | Emax (P. falciparum Dd2): 90.8%

Cc1cccc(CN2CCCC2c2cccc(Nc3nccs3)n2)c1 (stereo not shown) [DDD01057018, CC1=CC=CC(CN2CCCC2C2=CC=CC(NC3=NC=CS3)=N2)=C1]
IC50 [1, 12]: 0.12 µM | IC50 [1, 3]: 0.115 µM | inhibition at 2 µM [1]: 90.4% | IC50 [2, 4]: 0.914 µM | IC50 [2, 5]: 1.04 µM | Emax [2, 6]: 94.6% | Emax [2, 9]: 93.5% | IC50 [2, 7]: 0.53 µM | Emax [2, 8]: 101%

CN(CCc1cccc2ccccc12)Cc1nc(N)nc(N(C)C)n1 [DDD01076782, CN(CCC1=C2C=CC=CC2=CC=C1)CC1=NC(N)=NC(=N1)N(C)C]
IC50 [1, 3]: 3.99 µM | inhibition at 2 µM [1]: 74.3% | IC50 [2, 10]: 1.67 µM

CC(C)N(CCNC(=O)c1[nH]nc2ccc(I)cc12)C(C)C [DDD01078603, CC(C)N(CCNC(=O)C1=C2C=C(I)C=CC2=NN1)C(C)C]
IC50 [1, 3]: > 10 µM | inhibition at 2 µM [1]: 53.7%

COc1c(C)cnc(CN(C)C2CCCCC2)c1C [DDD01078822, COC1=C(C)C=NC(CN(C)C2CCCCC2)=C1C]
IC50 [1, 3]: 1.45 µM | inhibition at 2 µM [1]: 84.8%

O=C(CN1CCc2sccc2C1)Nc1ccnc2ccnn12 [DDD01078865, O=C(CN1CCC2=C(C1)C=CS2)NC1=CC=NC2=CC=NN12]
IC50 [1, 3]: 0.116 µM | inhibition at 2 µM [1]: 96.4%

CN1CCC(NCC(O)c2cccc(OCc3ccccc3)c2)CC1 (stereo not shown) [DDD01079164, CN1CCC(CC1)NCC(O)C1=CC=CC(OCC2=CC=CC=C2)=C1]
IC50 [1, 3]: 6.06 µM | inhibition at 2 µM [1]: 53.3%

Cc1cccc(CN2CCCn3c(nnc3Cn3cccn3)C2)n1 [DDD01084631, CC1=CC=CC(CN2CCCN3C(CN4C=CC=N4)=NN=C3C2)=N1]
IC50 [1, 3]: 1.04 µM | inhibition at 2 µM [1]: 51.5%

O=C(C1CC2(CCNCC2)CN1)N1CCN(c2cccc(Cl)c2Cl)CC1 (stereo not shown) [DDD01243908, ClC1=CC=CC(N2CCN(CC2)C(=O)C2CC3(CN2)CCNCC3)=C1Cl]
IC50 [1, 3]: 4.94 µM | inhibition at 2 µM [1]: 52.8%

COCC(C)NCc1nc(-c2ccc(C)cc2)c(-c2ccccn2)[nH]1 (stereo not shown) [DDD01244737, COCC(C)NCC1=NC(=C(N1)C1=CC=C(C)C=C1)C1=CC=CC=N1]
IC50 [1, 12]: 1.64 µM | IC50 [1, 3]: 1.64 µM | inhibition at 2 µM [1]: 72.4%

Fc1ccc2[nH]c(C3CCCN3Cc3c[nH]cn3)nc2c1 (stereo not shown) [DDD01245473, FC1=CC=C2N=C(NC2=C1)C1CCCN1CC1=CN=CN1]
IC50 [1, 3]: 1.88 µM | inhibition at 2 µM [1]: 53.9%

CCSCC(C)NCc1cn2ccccc2n1 (stereo not shown) [DDD01245879, CCSCC(C)NCC1=CN2C=CC=CC2=N1]
IC50 [1, 3]: 1.71 µM | inhibition at 2 µM [1]: 74%

CC(c1cccs1)N(C)Cc1cnc(-c2ccccn2)nc1 (stereo not shown) [DDD01246628, CC(N(C)CC1=CN=C(N=C1)C1=CC=CC=N1)C1=CC=CS1]
IC50 [1, 3]: 0.293 µM | inhibition at 2 µM [1]: 81.7%

Cc1ccc2nc(CN(C)Cc3n[nH]c4c3CCCCC4)[nH]c2c1C [DDD01247714, CN(CC1=NC2=CC=C(C)C(C)=C2N1)CC1=C2CCCCCC2=NN1]
IC50 [1, 3]: 1.62 µM | inhibition at 2 µM [1]: 89.8%

CNc1cc(C)nc(NCc2cc(C)cc3c(C)c(C)[nH]c23)n1 [DDD01248198, CNC1=CC(C)=NC(NCC2=C3NC(C)=C(C)C3=CC(C)=C2)=N1]
IC50 [1, 12]: 0.79 µM | IC50 [1, 3]: 0.791 µM | inhibition at 2 µM [1]: 70.7%

COCc1noc(-c2ccc(N(C)Cc3ncccc3C)nc2)n1 [DDD01248427, COCC1=NOC(=N1)C1=CC=C(N=C1)N(C)CC1=NC=CC=C1C]
IC50 [1, 3]: 1.02 µM | inhibition at 2 µM [1]: 58.1%

CSc1ccc(-c2nc(CN3CCC(CN)C3)c(C)o2)cc1 (stereo not shown) [DDD01250168, CSC1=CC=C(C=C1)C1=NC(CN2CCC(CN)C2)=C(C)O1]
IC50 [1, 3]: 2.42 µM | inhibition at 2 µM [1]: 63% | IC50 [2, 10]: 1.6 µM | Emax [2, 11]: 93.1%

CCN(CCN(C)C)c1nc(CCN)nc2sc(C)c(C)c12 [DDD01251823, CCN(CCN(C)C)C1=C2C(C)=C(C)SC2=NC(CCN)=N1]
IC50 [1, 3]: 4.42 µM | inhibition at 2 µM [1]: 58.8% | IC50 [2, 10]: 1.8 µM | Emax [2, 11]: 92.8%

Cc1ccc(-c2nc(CNC(C)CCO)[nH]c2-c2ccccn2)cc1 (stereo not shown) [DDD01253542, CC(CCO)NCC1=NC(=C(N1)C1=CC=C(C)C=C1)C1=CC=CC=N1]
IC50 [1, 12]: 1.09 µM | IC50 [1, 3]: 1.09 µM | inhibition at 2 µM [1]: 70.9% | IC50 [2, 10]: 1.81 µM

CCSCCNc1nc(-c2ccccn2)nc2c1c(C)nn2C [DDD01253625, CCSCCNC1=C2C(C)=NN(C)C2=NC(=N1)C1=CC=CC=N1]
IC50 [1, 12]: 1.88 µM | IC50 [1, 3]: 1.89 µM | inhibition at 2 µM [1]: 58.4%

Cc1nn(C)c2nc(-c3ccccn3)nc(NCCCOC(C)C)c12 [DDD01254389, CC(C)OCCCNC1=C2C(C)=NN(C)C2=NC(=N1)C1=CC=CC=N1]
IC50 [1, 12]: 1.71 µM | IC50 [1, 3]: 1.71 µM | inhibition at 2 µM [1]: 61.4%

Cc1cc(CN(C)c2nc(-c3ccccn3)nc3c2CCNCC3)n[nH]1 [DDD01255965, CN(CC1=CC(C)=NN1)C1=NC(=NC2=C1CCNCC2)C1=CC=CC=N1]
IC50 [1, 12]: 0.88 µM | IC50 [1, 3]: 0.875 µM | inhibition at 2 µM [1]: 61.9% | IC50 ([2]; 96 h incubation, Dd2 luciferase, read-out: 96 hour Pfluc IC50): > 10 µM

Cc1cc2nc(C(C)C)cc(NCC(c3ccccn3)N(C)C)n2n1 (stereo not shown) [DDD01256956, CC(C)C1=NC2=CC(C)=NN2C(NCC(N(C)C)C2=CC=CC=N2)=C1]
IC50 [1, 3]: 0.933 µM | inhibition at 2 µM [1]: 64.8%

Cc1cnc2c(S(=O)(=O)NC3CCS(=O)(=O)C3)cccc2c1 (stereo not shown) [DDD01296003, CC1=CN=C2C(C=CC=C2S(=O)(=O)NC2CCS(=O)(=O)C2)=C1]
IC50 [1, 3]: 2.28 µM | inhibition at 2 µM [1]: 76.3%

COc1cc(CNC(c2ccccc2)c2nccn2C)cc(OC)c1 (stereo not shown) [DDD01296506, COC1=CC(OC)=CC(CNC(C2=NC=CN2C)C2=CC=CC=C2)=C1]
IC50 [1, 3]: 0.513 µM | inhibition at 2 µM [1]: 58.3%

Cc1cnn(CC2CCCN2Cc2nc(C)c3ccccc3n2)c1 (stereo not shown) [DDD01298810, CC1=CN(CC2CCCN2CC2=NC(C)=C3C=CC=CC3=N2)N=C1]
IC50 [1, 3]: 0.296 µM | inhibition at 2 µM [1]: 51.9%

Cc1nnc(NCc2ccccc2Cl)c(C#N)c1C [DDD01302395, CC1=NN=C(NCC2=CC=CC=C2Cl)C(C#N)=C1C]
IC50 [1, 3]: > 9.58 µM | inhibition at 2 µM [1]: 68.1%
